Reference: patent US20200352880A1 (priority 2019, published 2020)

Tests used:
neutrophils [1] = experiment: E44-induced NET formation: DNA release (PicoGreen) and neutrophil elastase (NETosis Assay Kit) from neutrophils; type: cell-based; conditions: concentration-dependent
Excerpt: (§1) Since DNA is a major component of NETs, NET formation is first examined by determining the amount of DNA released from neutrophils. […] Methods are described in Reference 1.
The methods of neutrophil isolation and preparation are similar to those described previously, and the amount of NE is detected by following kit instructions.

E44 [2] = experiment: killing, NET trapping and phagocytosis of E44 by neutrophils; type: cell-based, E. coli
Procedure: (§2) The bactericidal functions of neutrophils include phagocytosis and NET-mediated killing. […] Experiments are performed according to the procedures described in Reference 2. […] The bacteria are collected and spread over Brain Heart Infusion (BHI) agar plates containing rifampin and allowed to culture for 12-16 hours, then the number of bacterial colonies of each sample is counted. […] After 1-hour incubation, the samples are centrifuged, collected, and mounted on microscope slides, which are sealed after DAPI staining, then phagocytosis of PMNs is observed and phagocytized particles are counted under a fluorescence microscope. […] However, early phagocytosis is not accompanied by a significant change in PMN structure when MOI<50. When MOI>50, each PMN on average includes at least 50 E44, a significant nuclear morphological change occurs.

neutrophils [3] = experiment: MRSA-induced NET formation (release of neutrophil DNA); type: cell-based
Excerpt: as §1
(§3) Experimental procedures of MEM enhancing NET formation and facilitating killing of MRSA by neutrophils are the same as described previously.

MRSA = experiment: killing of MRSA by neutrophils; type: cell-based, methicillin-resistant Staphylococcus aureus; conditions: increased concentration of MEM (1-25 μM); concentration-dependent
Procedure: as §2, §3

E44 [4] = experiment: NET formation in E44-infected mice (serum free DNA and NE); type: in vivo, C57 mice; conditions: MEM 5-10 μg/g body weight intraperitoneally, 24 hours
Procedure: After 24 hours, serum is obtained from blood samples collected from hearts, and the amounts of free DNA and neutrophil elastase (NE) in the serum of each mouse are determined using PicoGreen and Mouse PMN Elastase ELISA Kit (R&D Systems) respectively.

E44 [5] = experiment: spread of E44 in infected mice (bacterial counts in blood, livers, lungs, spleens); type: in vivo, C57 mice; conditions: MEM 5-10 μg/g body weight intraperitoneally, 24 hours
Procedure: After 24 hours of E44 infection, the mice are dissected to obtain blood, livers, lungs, and spleens under aseptic condition. The obtained blood, after performing an appropriate serial dilution, is spread over BHI (containing rifampin) agar plates. The obtained livers, lungs, and spleens are precisely weighed, added with pre-cooled sterile PBS in a ratio of 0.1 g/ml, and fully homogenized. The homogenates, after performing an appropriate serial dilution, are spread over BHI (containing rifampin) agar plates.
After confirming that MEM may enhance NET formation in bacteria-infected mice, whether MEM may block the spread of bacteria in mice is discussed. […] After 24 hours of bacterial infection, the mice are dissected to obtain blood, livers, lungs, and spleens under aseptic condition for bacterial count determination.

E44 [6] = experiment: killing of E44 by phagocytosis in dHL60 cells after CHRNA7 siRNA silencing; type: cell-based, E. coli; conditions: MEM dose up to 50 μM
Procedure: FIGS. 5A, 5B, 5C, and 5D illustrate the influence on phagocytosis by PMNs after gene silencing of CHRNA7 and S100A9. 2×10^6/ml HL60 cells are treated with 1.3% DMSO for cell stimulation and induction, and cell morphology is observed under an inverted microscope after 4-5 days. Compared to the control group, the cell volume gradually enlarges, granulocyte nuclear shapes such as kidney-shaped (banded) nucleus, segmented (multi-lobed) nucleus, bean-shaped nucleus appear after 48 hours and gradually increase over time. Cell status of each experimental group is identified using Typan Blue Exclusion Test and Wright-Giemsa Stain Method to meet the requirements for cell quality in follow-up studies. Differentiated neutrophils are added with CHRNA7 and S100A9siRNA, respectively, and treated with lipofectamine 2000 in 24-well plates, a supplemental complete cell culture medium is added after 6 hours to incubate for 48 hours, and the expression of CHRNA7 and S100A9 in differentiated HL60 (dHL60) cells is examined. Control siRNA acts as the control group, and GAPDH represents the housekeeping gene.
Samples are prepared by the dHL60 cells and E44 in a ratio of 1:5 and allowed to interact for 1 hour.

α7nAChR and S100A9 = experiment: immunofluorescence of α7nAChR and S100A9 in PMNs incubated with E44; type: cell-based; conditions: PMNs with bacteria (E44), compared to bacteria groups
Procedure: The next step is to further examine whether alpha7 nicotinic acetylcholine receptor (α7nAChR) is associated with antimicrobial protein S100A9 during the process of phagocytizing E44 by PMNs. […] Next, an immunofluorescence staining test is performed on the samples as follows: a primary antibody is added to incubate with α7nAChR and S100A9 overnight at 4° C., and then the corresponding FITC and PE-conjugated secondary antibodies are added to incubate for 1 hour at room temperature, after mounting the samples on microscope slides with DAPI sealing, positioning and expression of α7nAChR and S100A9 are observed under a fluorescence microscope. Compared to the control group, S100A9 (red) is redistributed to the cell edge and area around the nucleus (FIG. 6) after infected with E44, it is observed that α7nAChR (green) and S100A9 (red) are located in the same position with presenting of colocalization, and the expression of both is elevated, α7nAChR (green) and S100A9 (red) also appear to have a high degree of colocalization(R close to 1) after ImageJ software analysis.

PMNs = experiment: immunofluorescence of MPO, S100A9 and DNA in PMNs (NET formation); type: cell-based; conditions: PMA groups and E44 groups treated with MEM
mouse BMECs = experiment: gene expression profile of E44-infected BMECs by Next Generation Sequencing; type: cell-based; conditions: E44 infection 0.5 hours
Procedure: After the mouse BMECs are infected with E44 for 0.5 hours, the cells are collected to extract RNA, which is sent to Hua-Da Company (China) for Next Generation Sequencing analysis.
After the mouse BMECs are infected with E44 for 0.5 hours, the cells are collected to extract RNA, which is sent to Hua-Da Company (China) to analyze alterations on gene expression profile using Next Generation Sequencing and look for differentially expressed genes, a total of 978 differentially expressed genes are found.

cBMECs = experiment: number of circulating brain microvascular endothelial cells (cBMECs) in blood; conditions: in vivo
Procedure: The protocol is prepared as follows:
According to manufacturer's instructions, Dynabeads M-450 solution with a final concentration of 4×10^8 beads/ml is prepared by Hank's Balanced Salt Solution. BMECs in brain tissues and blood are isolated using UEA I. The BMECs from the brain tissues are cultured with RPMI-1640 medium containing 10% fetal bovine serum and identified using CD146 and Mfsd2a antibodies.

α7nAChR = α7nAChR (Homo sapiens, UniProt P36544); conditions: cited from earlier work
Chain of α7nAChR (P36544 23-502): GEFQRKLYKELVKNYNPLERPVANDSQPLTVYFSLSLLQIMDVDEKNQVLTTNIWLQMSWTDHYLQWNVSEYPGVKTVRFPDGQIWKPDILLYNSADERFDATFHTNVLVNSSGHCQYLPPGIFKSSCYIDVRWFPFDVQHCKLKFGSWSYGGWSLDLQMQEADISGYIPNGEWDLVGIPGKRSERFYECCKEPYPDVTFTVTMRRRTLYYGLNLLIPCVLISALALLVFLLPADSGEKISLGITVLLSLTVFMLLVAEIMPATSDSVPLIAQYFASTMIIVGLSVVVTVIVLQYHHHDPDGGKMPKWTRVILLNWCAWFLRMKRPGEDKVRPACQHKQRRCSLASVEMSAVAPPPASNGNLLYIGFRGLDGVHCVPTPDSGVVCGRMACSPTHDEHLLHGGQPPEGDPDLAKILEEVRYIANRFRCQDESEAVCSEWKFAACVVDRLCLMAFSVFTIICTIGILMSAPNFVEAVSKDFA

In the case of C[C@]12C[C@@H]3C[C@](C)(C1)C[C@@](N)(C3)C2.Cl [MEM, 3,5-Dimethyl-1-aminoadamantane hydrochloride], the “release of DNA from neutrophils under the effect of E44” value (neutrophils [1]; E44 MOI=10, different concentrations of MEM, 4 hours) is reported as “significantly enhanced”, the “production of neutrophil elastase (NE) under the effect of E44” value (neutrophils [1]; E44 with addition of MEM) is reported as “significantly increased” and the “phagocytosis of E44 by PMNs” value (E44 [2]; 50 μM MEM, E44 MOI=1, 5, 50, 100, 1-hour incubation, versus E44 groups) is reported as “more E44 are phagocytized”. For the same molecule, the “NETs trapping of E44” value (E44 [2]; DNase used to dissolve DNA) was “concentration-dependently enhance”, the “killing of E44 by neutrophils, including phagocytosis and NET-mediated killing” value (E44 [2]; E44 MOI=10, MEM 0, 10, 20, 50 μM, 2 hours, with or without Cytochalasin D) was “concentration-dependently enhance” and the “release of neutrophil DNA under the effect of MRSA” value (neutrophils [3]) was “significantly enhance”. For the same molecule, the “survival rate of MRSA” value (MRSA) was “gradually decreases”, the “NE in the blood (serum) of E44-infected mice” value (E44 [4]) was “significantly enhance” and the “free DNA in the blood (serum) of E44-infected mice” value (E44 [4]) was “significantly enhance”. The “spread of bacteria (E44) in mice” value (E44 [5]) was “significantly block”, the “effect of MEM on phagocytizing bacteria by PMNs after CHRNA7 down-regulation” value (E44 [6]) was “not obvious” and the “degree of colocalization of α7nAChR and S100A9” value (α7nAChR and S100A9) was “remarkably reduced”. For the same molecule, the “expression of α7nAChR and S100A9” value (α7nAChR and S100A9) was “significantly decreased”, the “MPO, S100A9 and DNA formation (NET formation)” value (PMNs) was “a large number of MPO (green), S100A9 (red), and DNA (blue) are formed” and the “E44-induced alterations on gene expression” value (mouse BMECs) was “reverse”. The “anti-inflammatory genes IL-33, IL-18rap, MMP10, Irs1 expression” value (mouse BMECs) was “significantly up-regulate”, the “pro-inflammatory genes A20, CISH, Ptgds, ZEP36 expression” value (mouse BMECs) was “down-regulate” and the “number of cBMECs in blood” value (cBMECs) was “reduce”. The “inhibitory effect on α7nAChR compared with inhibitory effect on NMDAR” value (α7nAChR) was “stronger”.
